# Entries after “also recorded” stand apart in the source; their conditions may differ. Non-standard residues stand in square brackets, D forms with d. Residues, ends and D or L forms follow the SMILES beside them. *: point of attachment. Sta = CC(C)C[C@H](N)[C@@H](O)CC(=O)O; Isovaleryl = CC(C)CC(=O)*
# Tests used:
# [1] = molecular target: T1, Peak II β-secretase endoprotease activity (cathepsin B) (Bos taurus, UniProt P07688); experiment: Protease inhibitors of β-secretase endoprotease activity in Peak II; format: biochemical, bovine; settings: for inhibition of Peak II activity, in words: text summary of Table IV; for Peak II (%): % of control (no inhibitor)
# T1 construct: from tissue; host or cells: bovine adrenal medulla chromaffin vesicles; Con A, Sephacryl S200 (Peak II), Mono Q (II-A, II-B)
# [2] = system: β-secretase endoprotease activity in chromaffin vesicle lysate; experiment: Protease inhibitors of β-secretase endoprotease activity in chromaffin vesicle lysate (Z*Val-Lys-Met-MCA cleavage, AMC fluorescence); format: biochemical, bovine; settings: for % CONTROL: pH 5.5, with aminopeptidase M, activity as % of activity without inhibitor; for inhibition of β-secretase endoprotease activity in chromaffin vesicle lysate, in words: text summary of Table II
# Protocol: (§1) The β-secretase endoprotease activity was identified by incubating the chromaffin vesicle lysate (2-10 μl of 10-20 mg protein/ml) with the Z★Val-Lys-Met-MCA substrate (100 μM final concentration) and detecting AMC fluorescence. The chromaffin vesicle lysate was prepared as described in Example I. The endoprotease activity was determined as a function of pH by varying the pH of the incubation solution between 3.0 to 8.0 in 0.5 pH increments. Citric acid, sodium phosphate, and Tris-HCl buffers (100 mM final concentration) were used to adjust the pH of the incubation solutions between 3.0 to 5.5, 6.0 to 7.5, and 8.0, respectively. Duplicate samples at each pH increment (100 μl each) were distributed among 22 wells in a covered microtiter well plate and incubated at 37° C. for 8 hours in a water bath.
# As discussed above, endoprotease cleavage between the Met-MCA bond in the Z★Val-Lys-Met-MCA substrate produces fluorescent AMC, but endoprotease cleavage between the Lys-Met or Val-Lys bonds in that substrate produces non-fluorescent Lys-Met-MCA and Met-MCA peptides. To insure that the latter two endoprotease cleavages were detected, aminopeptidase M (20 μg/ml final concentration, BOEHRINGER […]) was added to each incubation solutions to produce fluorescent AMC from the Lys-Met-MCA and Met-MCA peptides. Prior to adding the aminopeptidase M, each incubation solution was adjusted to a pH 8.3 using Tris-HCl because aminopeptidase M functions at a basic pH. A second incubation at 37° C. for 1 hour in the water bath was conducted to complete the aminopeptidase M reaction.
# Upon termination of that second incubation, AMC fluorescence was assayed using a fluorometer (IDEXX fluorometer, FCA Fluorescence Concentration Analyzer, cat. no. 10-105-2, BAXTER HEALTH CARE CORP., Mundelein, Ill.) at excitation and emission wavelengths of 365 and 450 nm, respectively. Standard AMC concentrations were also measured to quantitate relative fluorescence with the molar amount (pmol) of AMC generated by the secretase. The resulting AMC fluorescence reflects the endoprotease activity in cleaving either the Met-MCA, Lys-Met. and Val-Lys bonds in the Z★Val-Lys-Met-MCA substrate.
# (§2) The effect of the reducing agent dithiothreitol (DTT) on β-secretase endoprotease activity was determined using the assay described in Example III. Briefly, the lysed vesicles were incubated with the substrate Z★Val-Lys-Met-MCA in the presence or absence of 1 mM DTT and the resulting fluorescence plotted as a function of pH. Both with and without DTT, β-secretase endoprotease activity was detected and in both cases that activity had pH optimum of about 4.0 to 6.0, which is consistent with the intravesicular pH of chromaffin vesicles.
# The effect of the aminopeptidase M and the basic pH buffer used in the β-secretase endoprotease activity assay was determined. The assay was conducted as described in Example VIII with DTT. Three assays were conducted, one with aminopeptidase M in its basic pH buffer, another with the basic pH buffer but not aminopeptidase M, and a third without either the buffer or the aminopeptidase M. Briefly, the chromaffin vesicle lysate and the substrate Z★Val-Lys-Met-MCA were incubated for 30 minutes-at a specified pH and the resulting fluorescence measured. The aminopeptidase M in the basic pH buffer or:.that buffer alone (final concentration of 75 mM Tris-HCl pH 8.2) was added to the assay and incubated an additional 60 minutes at 37° C. […] The assay conducted with aminopeptidase M and its basic pH buffer and that of the control assay having just the basic pH buffer produced approximately the same amount of fluorescence.
# The effect of various protease inhibitors on β-secretase endoprotease activity in the lysate was determined at the pH optimum 5.5 in the assay described in Example IX containing aminopeptidase M. Protease inhibitors specific for various protease classes were used. […]
# [3] = molecular target: T2, Peak I β-secretase endoprotease activity (cathepsin L) (Bos taurus, UniProt P25975); experiment: Protease inhibitors of β-secretase endoprotease activity in Peak I; format: biochemical, bovine; settings: for inhibition of Peak I activity, in words: text summary of Table IV; for Peak I (%): % of control (no inhibitor); for β-secretase activity of Peak I: inhibitor at 1 μM (Example XVI)
# T2 construct: from tissue; host or cells: bovine adrenal medulla chromaffin vesicles; Con A then Sephacryl S200, Peak I
# Protocol: The effect of the aminopeptidase M and the basic pH buffer used in the β-secretase endoprotease activity assay was determined. […] Three assays were conducted, one with aminopeptidase M in its basic pH buffer, another with the basic pH buffer but not aminopeptidase M, and a third without either the buffer or the aminopeptidase M. Briefly, the chromaffin vesicle lysate and the substrate Z★Val-Lys-Met-MCA were incubated for 30 minutes-at a specified pH and the resulting fluorescence measured. The aminopeptidase M in the basic pH buffer or:.that buffer alone (final concentration of 75 mM Tris-HCl pH 8.2) was added to the assay and incubated an additional 60 minutes at 37° C.
# The protease inhibitor was added to each assay at the start of the reaction at the appropriate concentration. The extent of inhibition was expressed as a percentage of the activity without the inhibitor (control).
# [4] = system: β-secretase endoprotease activity in chromaffin vesicle lysate; experiment: Effect of reducing agents on β-secretase endoprotease activity in chromaffin vesicles; format: biochemical, bovine; settings: 1 mM; lysed vesicles, Z*Val-Lys-Met-MCA
# Protocol: as §1, §2
# [5] = system: cathepsin activity in brain; settings: administered to animals; cited from earlier work
# [6] = system: primary chromaffin cell cultures; experiment: Aβ-peptide secretion by chromaffin cells (RIA of Aβ1-40 in media); format: cell-based; settings: 50 mM, 15 minutes
# Protocol: Primary chromaffin cell cultures containing approximately 2 million cells in each culture were produced using established methods (Hook et al., ibid.; and Tezapsidis et al., ibid.). Exocytosis of the contents of the vesicles in such cells was induced by exposing the cells to KCl (50 mM) or nicotine (10 μM) for 15 minutes.
# [7] = system: 27 kDa and 31 kDa cysteine protease bands of Peak I; experiment: 125I-DCG-04 affinity labeling of Peak I; format: binding, bovine; settings: inhibitor 1 μM
# Protocol: An aliquot of Peak I was incubated at room temperature with 125I-DCG-04 for 30 minutes, and the affinity labeled β-secretase was then subjected to one-dimensional SDS-PAGE followed by electrophoretic transfer of proteins to nitrocellulose membranes, and 125I-DCG-04 labeled proteins were detected with streptavidin-HRP, as described previously (Greenbaum et al. Chem. Biol. 7:569-81, 2000, Greenbaum et al., Chemistry and Biology 10, 1085-1094, 2002; Greenbaum et al., Mol. Cell. Proteomics, 1:60-68, 2002).
# The 31 kDa band resembles the molecular weight of the cysteine protease cathepsin B (Barrett et al., “Handbook of Proteolytic Enzymes,” Pub. Academic Press, SanDiego, pp 609-617, 1998; and Greenbaum et al., Mol. Cell. Proteomics, 1:60-68, 2002). The selective cathepsin B inhibitor, CA-074, was used to determine whether the 27 kDa or 31 kDa bands were responsible for the β-secretase activity of Peak I (Yamamoto et al., J. Mol. Biol. 227:942-944, 1992; Gour-Salin et al., J. Med. Chem. 36:720-725, 1993; Bogyo et al., Chem Biol. 1:27-38, 2000).
# T2 sequence (P25975 118-334): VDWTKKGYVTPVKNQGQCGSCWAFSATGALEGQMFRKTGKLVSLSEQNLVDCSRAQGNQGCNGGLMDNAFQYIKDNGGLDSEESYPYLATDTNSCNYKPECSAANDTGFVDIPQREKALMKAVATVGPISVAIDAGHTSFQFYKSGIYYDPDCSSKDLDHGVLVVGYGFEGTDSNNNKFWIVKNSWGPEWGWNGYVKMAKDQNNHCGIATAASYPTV
compound,measurement,setting,value
"O=S(=O)(F)Cc1ccccc1 [PMSF, phenylmethylsulfonyl fluoride]","inhibition of Peak II activity, in words",[1],did not significantly inhibit; also recorded: only slightly inhibited
same,% CONTROL,[2]; inhibitor 100 μM,58%
same,"inhibition of β-secretase endoprotease activity in chromaffin vesicle lysate, in words",[2],significantly inhibited
same,"inhibition of Peak I activity, in words",[3],did not significantly inhibit; also recorded: only slightly inhibited
CC(C)C[C@H](NC(=O)[C@@H](NC(=O)N[C@@H](Cc1ccccc1)C(=O)O)[C@@H]1CCN=C(N)N1)C(=O)N[C@H](C=O)Cc1ccccc1 [Chymostatin],Peak II (%),[1]; inhibitor 10 μM,35%
same,"inhibition of Peak II activity, in words",[1],maximally inhibited
same,% CONTROL,[2]; inhibitor 10 μM,11%
same,"inhibition of β-secretase endoprotease activity in chromaffin vesicle lysate, in words",[2],greatly inhibited
same,Peak I (%),[3]; inhibitor 10 μM,0%
same,"inhibition of Peak I activity, in words",[3],maximally inhibited
"O[C@H](CS)[C@H](O)CS (racemic) [DTT, dithiothreitol]",increase in the β-secretase endoprotease activity,[4],approximately 5 fold
CC(=O)N[C@@H](CC(C)C)C(=O)N[C@@H](CC(C)C)C(=O)N[C@H](C=O)CCCNC(=N)N [Leupeptin],Peak II (%),[1]; inhibitor 100 μM,0%
same,"inhibition of Peak II activity, in words",[1],maximally inhibited; also recorded: completely inhibited
same,% CONTROL,[2]; inhibitor 100 μM,0%
same,"inhibition of β-secretase endoprotease activity in chromaffin vesicle lysate, in words",[2],completely inhibited
same,Peak I (%),[3]; inhibitor 100 μM,0%
same,"inhibition of Peak I activity, in words",[3],maximally inhibited; also recorded: completely inhibited
CC(C)CCNC(=O)[C@H](CC(C)C)NC(=O)[C@H]1O[C@@H]1C(=O)O [E64c],Peak II (%),[1]; inhibitor 10 μM,0%
same,"inhibition of Peak II activity, in words",[1],maximally inhibited; also recorded: completely inhibited
same,% CONTROL,[2]; inhibitor 10 μM,0%
same,"inhibition of β-secretase endoprotease activity in chromaffin vesicle lysate, in words",[2],completely inhibited
same,cathepsin activity in brain,[5],effectively block
same,Peak I (%),[3]; inhibitor 10 μM,0%
same,β-secretase activity of Peak I,[3],completed inhibited
same,"inhibition of Peak I activity, in words",[3],maximally inhibited; also recorded: completely inhibited
O=C(O)CN(CCOCCOCCN(CC(=O)O)CC(=O)O)CC(=O)O [EGTA],Peak II (%),[1]; inhibitor 1 mM,142%
same,% CONTROL,[2]; inhibitor 1 mM,99%
same,Peak I (%),[3]; inhibitor 1 mM,108%
O=C(O)c1cc[c]([Hg][OH])cc1 [pHMB],Peak II (%),[1]; inhibitor 1 mM,68%
same,"inhibition of Peak II activity, in words",[1],slightly inhibited; also recorded: inhibited
same,% CONTROL,[2]; inhibitor 1 mM,35%
same,"inhibition of β-secretase endoprotease activity in chromaffin vesicle lysate, in words",[2],inhibited
same,"inhibition of β-secretase endoprotease activity in chromaffin vesicle lysate, in words",[2]; listed as PHMB,greatly inhibited
same,Peak I (%),[3]; inhibitor 1 mM,67%
same,"inhibition of Peak I activity, in words",[3],slightly inhibited; also recorded: inhibited
"O=C(O)CN(CCN(CC(=O)O)CC(=O)O)CC(=O)O [EDTA, ethylenediaminetetraacetic acid]",Peak II (%),[1]; inhibitor 1 mM,138%
same,% CONTROL,[2]; inhibitor 1 mM,100%
same,Peak I (%),[3]; inhibitor 1 mM,99%
"[Cl-].[K+] [KCl, potassium chloride]",increase in the concentration of Aβ1-40 peptide in the media relative to control media,[6],approximately 350 fold
CC(C)CC(=O)N[C@H](C(=O)N[C@H](C(=O)N[C@@H](CC(C)C)[C@@H](O)CC(=O)N[C@@H](C)C(=O)N[C@@H](CC(C)C)[C@@H](O)CC(=O)O)C(C)C)C(C)C [Pepstatin A] (Isovaleryl-VV[Sta]A[Sta]-OH),Peak II (%),[1]; inhibitor 100 μM,132%
same,"inhibition of Peak II activity, in words",[1],did not significantly inhibit; also recorded: increased the activity
same,% CONTROL,[2]; inhibitor 10 μM,78%
same,"inhibition of β-secretase endoprotease activity in chromaffin vesicle lysate, in words",[2],slightly inhibited
same,Peak I (%),[3]; inhibitor 100 μM,85%
same,"inhibition of Peak I activity, in words",[3],did not significantly inhibit; also recorded: slightly inhibited
CCCNC(=O)[C@H]1O[C@@H]1C(=O)N[C@H](C(=O)N1CCC[C@H]1C(=O)O)[C@@H](C)CC [CA-074],125I-DCG-04 labeling of Peak I bands in the presence of the inhibitor,[7],labeling of only the 27 kDa band
same,β-secretase activity of Peak I,[3],not affected
"c1cnc2c(c1)ccc1cccnc12 [1,10 Phenanthroline]",Peak II (%),[1]; inhibitor 500 μM,72%
same,"inhibition of Peak II activity, in words",[1],only slightly inhibited
same,Peak I (%),[3]; inhibitor 500 μM,31%
same,"inhibition of Peak I activity, in words",[3],significantly inhibited

# From patent publication US20040248232A1, “Method for treating Alzheimer's dementia” (priority 2003, published 2004)
